EC50 data for 6 molecules are collected here from patent US20230391845A1, “GLP-1, GIP AND GLUCAGON RECEPTOR TRIPLE AGONISTS” (priority 2020, published 2023).

Assay [1] deals with T1, human GLP-1 receptor (Homo sapiens, UniProt P43220).
T1 construct: expressed in transfected cells; host or cells: BHK cells (parent line BHKTS13) containing CRE luciferase
Briefly: In vitro functional potency (CRE luciferase; whole cells), human GLP-1R. Format: cell-based. As to conditions: BHK CRE luc2P hGLP-1R whole cells; Table 2; read-out: hGLP-1R CRE Luc EC50.
Experimental: The purpose of this example is to test the functional activity, or potency, of the compounds in vitro at the human and mouse GLP-1, GIP, and Gcg receptors. The in vitro functional potency is the measure of target receptor activation in a whole cell assay.
In vitro functional potency was determined by measuring the response of the target receptor in a reporter gene assay in individual cell lines. The assay was performed in stably transfected BHK cell lines that expresses one of the following G-protein coupled receptors: human GLP-1 receptor, human GIP receptor, human Gcg receptor, mouse GLP-1 receptor, mouse GIP receptor, or mouse Gcg receptor; and where each cell line contains the DNA for the cAMP response element (CRE) coupled to a promoter and the gene for firefly luciferase (CRE luciferase). When the respective receptor is activated, it results in the production of cAMP, which in turn results in expression of the luciferase protein. When assay incubation is completed, luciferase substrate (luciferin) is added resulting in the enzymatic conversion of luciferin to oxyluciferin and producing bioluminescence. The luminescence is measured as the readout for the assay.
The cells lines used in these assays were BHK cells with BHKTS13 as a parent cell line. The cell lines were derived from a clone containing the CRE luciferase element and were established by further transfection with the respective receptor to obtain the relevant cell line.
The cells were cultured at 37° C. with 5% CO2 in Cell Culture Medium. They were aliquoted and stored in liquid nitrogen. The cells were kept in continuous culture and were seeded out the day before each assay.
GLP-1R and GcgR Cell Culture Medium consisted of DMEM medium with 10% FBS, 500 µg/mL G418, and 300 µg/mL hygromycin. GIPR Cell Culture Medium consisted of DMEM medium with 10% FBS, 400 µg/mL G418, and 300 µg/mL hygromycin. Assay Buffer consisted of DMEM w/o phenol red, 10 mM Hepes, 1× Glutamax, 1% ovalbumin, and 0.1% Pluronic F-68.
• 1) Cells were plated at 5000 cells/well and incubated overnight in the assay plate. • 2) Cells were washed once in DPBS. • 3) Stocks of the test compounds and reference compounds in concentrations ranging from 100-300 pM were diluted 1:150 in Assay Buffer.
The data from the microtiter plate reader was first regressed in an Excel in order to calculate the x-axis, log scale concentrations based on the individual test compound's stock concentration and the dilutions of the assay. […] The software performs a non-linear regression (log(agonist) vs response). A minimum of two replicates was measured for each sample. The reported values are averages of the replicates.

The target in assay [2] is T2, human GIP receptor (Homo sapiens, UniProt P48546).
T2 construct: expressed in transfected cells; host or cells: BHK cells (parent line BHKTS13) containing CRE luciferase
T2 sequence (P48546 22-466): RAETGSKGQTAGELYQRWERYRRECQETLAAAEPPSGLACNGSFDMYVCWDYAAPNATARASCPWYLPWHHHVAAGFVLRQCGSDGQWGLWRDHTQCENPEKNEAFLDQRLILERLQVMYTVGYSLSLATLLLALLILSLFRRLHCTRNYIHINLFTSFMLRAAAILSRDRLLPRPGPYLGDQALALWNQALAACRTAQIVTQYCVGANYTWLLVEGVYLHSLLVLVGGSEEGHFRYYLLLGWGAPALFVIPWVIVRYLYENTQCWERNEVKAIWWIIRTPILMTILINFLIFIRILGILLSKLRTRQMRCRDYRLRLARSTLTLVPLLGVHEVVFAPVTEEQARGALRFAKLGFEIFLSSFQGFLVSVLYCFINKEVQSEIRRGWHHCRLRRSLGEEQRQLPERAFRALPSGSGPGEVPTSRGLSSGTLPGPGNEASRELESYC
Briefly: In vitro functional potency (CRE luciferase; whole cells), human GIPR. It is filed as cell-based. The following applies: BHK CRE luc2P hGIPR whole cells, read-out: hGIPR CRE Luc EC50.

Molecules are shown by their SMILES. Read-outs that look alike come from different tables or passages of the source. *1 amine or outer side, *2 acyl side, *3 side chain or, on linkers, in order; H or OH if unused. Where a SMILES comes first, the peptide text is derived from it. Side-chain parts run from the residue outwards. [ ]: non-standard residue; d: D form. The star is where a group is joined. C20 diacid = O=C(O)CCCCCCCCCCCCCCCCCCC(=O)*; γGlu = O=C(O)[C@H](CCC(=O)[*:2])N[*:1]; εLys = N[C@@H](CCCCN[*:1])C(=O)[*:2]; Palmitoyl = CCCCCCCCCCCCCCCC(=O)*; AEEA = NCCOCCOCC(=O)O; Aib = CC(C)(N)C(=O)O

T1 sequence (P43220 24-463): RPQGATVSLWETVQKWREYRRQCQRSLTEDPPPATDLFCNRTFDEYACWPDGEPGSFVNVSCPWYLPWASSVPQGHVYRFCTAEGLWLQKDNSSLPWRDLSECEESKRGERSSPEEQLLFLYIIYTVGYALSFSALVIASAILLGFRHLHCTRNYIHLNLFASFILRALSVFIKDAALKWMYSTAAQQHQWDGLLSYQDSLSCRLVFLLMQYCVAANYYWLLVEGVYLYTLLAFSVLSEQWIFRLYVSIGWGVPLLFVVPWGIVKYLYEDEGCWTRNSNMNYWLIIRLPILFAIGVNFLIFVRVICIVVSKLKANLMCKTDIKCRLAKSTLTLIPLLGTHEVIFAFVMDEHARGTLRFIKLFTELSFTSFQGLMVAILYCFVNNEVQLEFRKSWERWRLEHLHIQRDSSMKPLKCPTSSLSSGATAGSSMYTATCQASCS

Consider `CC[C@H](C)[C@H](NC(=O)[C@H](CO)NC(=O)[C@H](Cc1ccc(O)cc1)NC(=O)[C@H](CC(=O)O)NC(=O)[C@H](CO)NC(=O)[C@@H](NC(=O)[C@H](Cc1ccccc1)NC(=O)[C@@H](NC(=O)CNC(=O)[C@H](Cc1c[nH]cn1)NC(=O)C(C)(C)NC(=O)[C@@H](N)Cc1c[nH]cn1)[C@@H](C)O)[C@@H](C)O)C(=O)N[C@@H](CC(C)C)C(=O)N[C@@H](CC(C)C)C(=O)N[C@@H](CCC(=O)O)C(=O)N[C@@H](CCCCNC(=O)[C@@H](N)CCCCNC(=O)[C@@H](N)CCCCNC(=O)CC[C@H](NC(=O)CCCCCCCCCCCCCCCCCCC(=O)O)C(=O)O)C(=O)N[C@@H](CCC(N)=O)C(=O)N[C@@H](C)C(=O)N[C@@H](C)C(=O)N[C@@H](CCC(=O)O)C(=O)N[C@@H](CCC(=O)O)C(=O)N[C@@H](Cc1ccccc1)C(=O)N[C@H](C(=O)N[C@@H](CCC(N)=O)C(=O)N[C@@H](Cc1c[nH]c2ccccc12)C(=O)N[C@@H](CC(C)C)C(=O)N[C@@H](CC(C)C)C(=O)N[C@@H](CCC(=O)O)C(=O)NCC(=O)NCC(=O)N1CCC[C@H]1C(=O)N[C@@H](CO)C(=O)N[C@@H](CO)C(=O)NCC(=O)N[C@@H](C)C(=O)N1CCC[C@H]1C(=O)N1CCC[C@H]1C(=O)N1CCC[C@H]1C(=O)N[C@@H](CO)C(N)=O)C(C)C` [Compound No. 49] (H-H[Aib]HGTFTSDYSILLEK([εLys-εLys-γGlu-C20 diacid])QAAEEFVQWLLEGGPSSGAPPPS-NH2), for which the figures for the EC50 in assay [1] and in assay [2] (Table 2) were 1.4 pM and 2.1 pM, respectively.

Turning to `CC[C@H](C)[C@H](NC(=O)[C@H](CO)NC(=O)[C@H](Cc1ccc(O)cc1)NC(=O)[C@H](CC(=O)O)NC(=O)[C@H](CO)NC(=O)[C@@H](NC(=O)[C@H](Cc1ccccc1)NC(=O)[C@@H](NC(=O)CNC(=O)[C@H](CCC(N)=O)NC(=O)C(C)(C)NC(=O)[C@@H](N)Cc1ccc(O)cc1)[C@@H](C)O)[C@@H](C)O)C(=O)N[C@@H](Cc1ccc(O)cc1)C(=O)N[C@@H](CC(C)C)C(=O)N[C@@H](CCC(=O)O)C(=O)N[C@@H](CCCCNC(=O)COCCOCCNC(=O)COCCOCCNC(=O)CC[C@H](NC(=O)CCCCCCCCCCCCCCCCCCC(=O)O)C(=O)O)C(=O)N[C@@H](CCC(N)=O)C(=O)N[C@@H](C)C(=O)N[C@@H](C)C(=O)NC(C)(C)C(=O)N[C@@H](CCC(=O)O)C(=O)N[C@@H](Cc1ccccc1)C(=O)N[C@H](C(=O)N[C@@H](CC(N)=O)C(=O)N[C@@H](Cc1c[nH]c2ccccc12)C(=O)N[C@@H](CC(C)C)C(=O)N[C@@H](CC(C)C)C(=O)N[C@@H](C)C(=O)NCC(=O)NCC(=O)N1CCC[C@H]1C(=O)N[C@@H](CO)C(=O)N[C@@H](CO)C(=O)NCC(=O)N[C@@H](C)C(=O)N1CCC[C@H]1C(=O)N1CCC[C@H]1C(=O)N1CCC[C@H]1C(=O)N[C@@H](CO)C(N)=O)C(C)C` [Compound No. 15] (H-Y[Aib]QGTFTSDYSIYLEK([AEEA-AEEA-γGlu-C20 diacid])QAA[Aib]EFVNWLLAGGPSSGAPPPS-NH2), the EC50 (commonly the concentration needed to bring the measured effect to its halfway point) was 1.4 pM in assay [1] and 4.8 pM in assay [2] (Table 2).

Take `CC[C@H](C)[C@H](NC(=O)[C@H](CO)NC(=O)[C@H](Cc1ccc(O)cc1)NC(=O)[C@H](CC(=O)O)NC(=O)[C@H](CO)NC(=O)[C@@H](NC(=O)[C@H](Cc1ccccc1)NC(=O)[C@@H](NC(=O)CNC(=O)[C@H](Cc1c[nH]cn1)NC(=O)C(C)(C)NC(=O)[C@@H](N)Cc1ccc(O)cc1)[C@@H](C)O)[C@@H](C)O)C(=O)N[C@@H](Cc1ccc(O)cc1)C(=O)N[C@@H](CC(C)C)C(=O)N[C@@H](CCC(=O)O)C(=O)N[C@@H](CCCCNC(=O)[C@@H](N)CCCCNC(=O)[C@@H](N)CCCCNC(=O)CC[C@H](NC(=O)CCCCCCCCCCCCCCCCCCC(=O)O)C(=O)O)C(=O)N[C@@H](CCC(N)=O)C(=O)N[C@@H](C)C(=O)N[C@@H](C)C(=O)NC(C)(C)C(=O)N[C@@H](CCC(=O)O)C(=O)N[C@@H](Cc1ccccc1)C(=O)N[C@H](C(=O)N[C@@H](CCC(N)=O)C(=O)N[C@@H](Cc1c[nH]c2ccccc12)C(=O)N[C@@H](CC(C)C)C(=O)N[C@@H](CC(C)C)C(=O)N[C@@H](CCC(=O)O)C(=O)NCC(=O)NCC(=O)N1CCC[C@H]1C(=O)N[C@@H](CO)C(=O)N[C@@H](CO)C(=O)NCC(=O)N[C@@H](C)C(=O)N1CCC[C@H]1C(=O)N1CCC[C@H]1C(=O)N1CCC[C@H]1C(=O)N[C@@H](CO)C(N)=O)C(C)C` [Compound No. 18] (H-Y[Aib]HGTFTSDYSIYLEK([εLys-εLys-γGlu-C20 diacid])QAA[Aib]EFVQWLLEGGPSSGAPPPS-NH2): the concentration for a half-maximal effect (EC50) in assay [2] (Table 2) was determined as 7.1 pM.

With `CC[C@H](C)[C@H](NC(=O)[C@H](CO)NC(=O)[C@H](Cc1ccc(O)cc1)NC(=O)[C@H](CC(=O)O)NC(=O)[C@H](CO)NC(=O)[C@@H](NC(=O)[C@H](Cc1ccccc1)NC(=O)[C@@H](NC(=O)CNC(=O)[C@H](Cc1c[nH]cn1)NC(=O)C(C)(C)NC(=O)[C@@H](N)Cc1c[nH]cn1)[C@@H](C)O)[C@@H](C)O)C(=O)N[C@@H](CC(C)C)C(=O)N[C@@H](CC(C)C)C(=O)N[C@@H](CCC(=O)O)C(=O)N[C@@H](CCCCNC(=O)[C@@H](N)CCCCNC(=O)[C@@H](N)CCCCNC(=O)CC[C@H](NC(=O)CCCCCCCCCCCCCCCCCCC(=O)O)C(=O)O)C(=O)N[C@@H](CCC(N)=O)C(=O)N[C@@H](C)C(=O)N[C@@H](C)C(=O)N[C@@H](CCC(=O)O)C(=O)N[C@@H](CCC(=O)O)C(=O)N[C@@H](Cc1ccccc1)C(=O)N[C@H](C(=O)N[C@@H](CCC(N)=O)C(=O)N[C@@H](Cc1c[nH]c2ccccc12)C(=O)N[C@@H](CC(C)C)C(=O)N[C@@H](CC(C)C)C(=O)N[C@@H](CCC(=O)O)C(=O)NCC(=O)NCC(=O)N1CCC[C@H]1C(=O)N[C@@H](CO)C(=O)N[C@@H](CO)C(=O)NCC(=O)N[C@@H](C)C(=O)N1CCC[C@H]1C(=O)N1CCC[C@H]1C(=O)N1CCC[C@H]1C(=O)N[C@@H](CO)C(=O)O)C(C)C` [Compound No. 50] (H-H[Aib]HGTFTSDYSILLEK([εLys-εLys-γGlu-C20 diacid])QAAEEFVQWLLEGGPSSGAPPPS-OH), the EC50 in assay [2] (Table 2) worked out at 1.9 pM.

With `CC(C)C[C@H](NC(=O)[C@H](CC(C)C)NC(=O)[C@H](Cc1c[nH]c2ccccc12)NC(=O)[C@H](CCC(N)=O)NC(=O)[C@@H](NC(=O)[C@H](Cc1ccccc1)NC(=O)[C@H](CCC(=O)O)NC(=O)C(C)(C)NC(=O)[C@H](C)NC(=O)[C@H](Cc1ccc(O)cc1)NC(=O)[C@H](CCC(N)=O)NC(=O)[C@H](CCCCNC(=O)[C@@H](N)CCCCNC(=O)[C@@H](N)CCCCNC(=O)CC[C@H](NC(=O)CCCCCCCCCCCCCCCCCCC(=O)O)C(=O)O)NC(=O)[C@H](CCC(=O)O)NC(=O)[C@H](CC(C)C)NC(=O)[C@H](Cc1ccc(O)cc1)NC(=O)[C@H](Cc1ccc(O)cc1)NC(=O)[C@H](CO)NC(=O)[C@H](Cc1ccc(O)cc1)NC(=O)[C@H](CC(=O)O)NC(=O)[C@H](CO)NC(=O)[C@@H](NC(=O)[C@H](Cc1ccccc1)NC(=O)[C@@H](NC(=O)CNC(=O)[C@H](Cc1c[nH]cn1)NC(=O)C(C)(C)NC(=O)[C@@H](N)Cc1c[nH]cn1)[C@@H](C)O)[C@@H](C)O)C(C)C)C(=O)N[C@@H](CCC(=O)O)C(=O)NCC(=O)NCC(=O)N1CCC[C@H]1C(=O)N[C@@H](CO)C(=O)N[C@@H](CO)C(=O)NCC(=O)N[C@@H](C)C(=O)N1CCC[C@H]1C(=O)N1CCC[C@H]1C(=O)N1CCC[C@H]1C(=O)N[C@@H](CO)C(N)=O` [Compound No. 29] (H-H[Aib]HGTFTSDYSYYLEK([εLys-εLys-γGlu-C20 diacid])QYA[Aib]EFVQWLLEGGPSSGAPPPS-NH2), the EC50 in assay [2] (Table 2) is 7.2 pM. As for `CCCCCCCCCCCCCCCC(=O)NCCCC[C@H](NC(=O)[C@H](CO)NC(=O)[C@@H]1CCCN1C(=O)[C@@H]1CCCN1C(=O)[C@@H]1CCCN1C(=O)[C@H](C)NC(=O)CNC(=O)[C@H](CO)NC(=O)[C@H](CO)NC(=O)[C@@H]1CCCN1C(=O)CNC(=O)CNC(=O)[C@H](C)NC(=O)[C@H](CC(C)C)NC(=O)[C@H](CC(C)C)NC(=O)[C@H](Cc1c[nH]c2ccccc12)NC(=O)[C@H](CC(N)=O)NC(=O)[C@@H](NC(=O)[C@H](Cc1ccccc1)NC(=O)[C@H](CCC(=O)O)NC(=O)C(C)(C)NC(=O)[C@H](C)NC(=O)[C@H](C)NC(=O)[C@H](CCC(N)=O)NC(=O)[C@H](CCCCN)NC(=O)[C@H](CC(=O)O)NC(=O)[C@H](CC(C)C)NC(=O)[C@H](Cc1ccc(O)cc1)NC(=O)[C@@H](NC(=O)[C@H](CO)NC(=O)[C@H](Cc1ccc(O)cc1)NC(=O)[C@H](CC(=O)O)NC(=O)[C@H](CO)NC(=O)[C@@H](NC(=O)[C@H](Cc1ccccc1)NC(=O)[C@@H](NC(=O)CNC(=O)[C@H](CCC(N)=O)NC(=O)C(C)(C)NC(=O)[C@@H](N)Cc1ccc(O)cc1)[C@@H](C)O)[C@@H](C)O)[C@@H](C)CC)C(C)C)C(N)=O` [Compound No. 58, reference compound] (H-Y[Aib]QGTFTSDYSIYLDKQAA[Aib]EFVNWLLAGGPSSGAPPPSK(Palmitoyl)-NH2; N-terminus assumed), in assay [2] (Table 1, position of substituent varied), the EC50 came out at 7.2 pM.
